The source of these data is PubChem BioAssay (NCI).

Common to all, as to experiment: inhibition of tumour cell growth, NCI panel, 48 h
Assay [1] relates to 786-0 renal.
Assay [2] deals with BT-549 breast.
Assay [3] deals with COLO 205 colon.
In assay [4] the test system is EKVX NSCLC.
Assay [5] relates to HCT-116 colon.
The subject of assay [6] is HOP-62 NSCLC.
Assay [7] has as its system KM12 colon.
The test system of assay [8] is NCI-H23 lung.
Assay [9] relates to NCI-H460 lung.
Assay [10] has as its system NCI/ADR-RES ovarian.
Assay [11] deals with OVCAR-3 ovarian.
Assay [12] deals with SR leukemia.
For assay [13], the system named is SW-620 colon.
Assay [14] relates to T-47D breast.
For assay [15], the system named is UACC-62 melanoma.

Where “and” joins values, the source holds several entries; their conditions need not be identical. Equal entries are not always repeated.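 All cell lines were grown in 96-well plates and treated with compound for 48 hours. GI50 is the concentration that inhibits growth by half. The concentration for full growth arrest is given as TGI.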 Where a SMILES comes first, the peptide text is derived from it. The star is where a group is joined. Boc = CC(C)(C)OC(=O)*; nBu = CCCC*

On to `CCOc1nc2c(N3CCCC3)nc(N3CCNCC3)nc2nc1NCc1ccccc1`, for which the TGI in [1] turned out to be 2.68 µM; in [2], 3.51 µM; in assay [3], 1.93 µM; in assay [4], 4.33 µM; in [5] it was 2.14 µM; in [6], 2.33 µM. In addition, the TGI in assay [7] amounted to 3.08 µM; in [8] it was 3.45 µM; in assay [9], 2.91 µM; in assay [10] it was 8.6 µM; in [11], 2.32 µM; in [12], 3.12 µM. Besides, the TGI in [13] was found to be 3.49 µM; in assay [14] it was 3.13 µM; in assay [15], 3.25 µM.

As for `Cc1c(-c2ccccc2)[nH]c2cn[nH]c(=O)c12`, the TGI in [1], in assay [2], in [3], in assay [4], in [5] and in assay [6] was over 100 µM in each case. In addition, the TGI in assay [7], in assay [8], in [9], in assay [10], in [11] and in assay [12] was over 100 µM throughout. Besides, the TGI in [13] and in [15] was over 100 µM in each case.

Turning to `C#C[C@]1(O)CC[C@H]2[C@@H]3CCc4cc(O)ccc4[C@H]3CC[C@@]21C`, the TGI is over 100 µM in assay [1]; 92.7 µM in [3]; over 100 µM in assay [4]; over 100 µM in assay [5]; over 100 µM in [7]; 69.4 µM in assay [8]. For the same compound, the TGI in assay [9] is 82.5 µM; in [11] it was over 100 µM; in assay [12], over 100 µM; in [13] it was over 100 µM; in assay [15], over 100 µM.

For the compound `C[C@@H]1CC[C@@H]2[C@@H](C1)O[C@@H]([C@@H](C)OCc1ccccc1)SC2(C)C`, the TGI in [1] came to 34 µM; in assay [2], 42.6 µM; in [3] it was 32.7 µM; in [4] it was 67.4 µM; in assay [5], 34.5 µM; in assay [6] it was 32.3 µM. Moreover, the TGI was found to be 34.4 µM in assay [7]; 51.5 µM in assay [8]; 49.1 µM in [9]; 40.2 µM in assay [10]; 34.9 µM in assay [12]; 34 µM in assay [13]. Further, the TGI in assay [14] turned out to be 32.4 µM; in assay [15], 43.2 µM.

With `C/C(C=O)=C/[C@@]1(C)O[C@@H](C)[C@@](C)(O)[C@@H]1O`, the TGI in [1] is 34.6 µM; in [3], over 100 µM; in assay [4] it was over 100 µM; in assay [5], over 100 µM; in [6] it was over 100 µM; in [7], over 100 µM. Moreover, the TGI in assay [8] was over 100 µM; in assay [9] it was 64 µM; in assay [10], 56.1 µM; in assay [11] it was over 100 µM; in assay [12], 7.12 µM; in assay [13], over 100 µM. Moreover, the TGI in assay [14] and in [15] was over 100 µM throughout.

For `COC(=O)c1c(O)ccc2c1c1cc3ccccc3c(O)c1n2CCc1ccc(OC)c(OC)c1`, the TGI in [1] was over 100 µM; in assay [2] it was over 100 µM; in assay [3], 30.4 µM; in assay [4], over 100 µM; in assay [5], over 100 µM; in assay [6], over 100 µM. Also, the TGI in [7], in assay [8], in assay [9], in assay [10], in assay [11] and in [12] was over 100 µM throughout. Further, the TGI in assay [14] and in assay [15] was over 100 µM in each case.

As for `CC(C)CC(N)C(=O)NC(C(=O)NC(CCCNC(=N)N)C(=O)NC(CS)C(=O)NC1CSCC(C(=O)NC(Cc2ccccc2)C(=O)NC(C(=O)NC(CCCNC(=N)N)C(=O)O)C(C)C)NC(=O)C2CCCN2C(=O)C(CCCCN)NC(=O)C2CCCN2C(=O)C2CCCN2C(=O)C(Cc2ccc(O)cc2)NC(=O)C(CO)NC(=O)C(CCCCN)NC(=O)C(C(C)O)NC(=O)C(Cc2c[nH]c3ccccc23)NC1=O)C(C)C` (stereo unspecified), the TGI in [1], in [2], in assay [3], in [4], in assay [5] and in assay [6] was over 25 µM each time. For the same compound, the TGI in assay [7], in assay [8], in assay [10], in [11], in [12] and in [13] was over 25 µM each time. Besides, the TGI in [14] and in assay [15] was over 25 µM throughout.

In the case of `CCc1n[nH]c(=O)n1/N=C(\C)c1ccccc1`, the TGI in [1], in assay [2], in assay [3], in assay [4], in assay [5] and in [6] was over 100 µM each time. For the same compound, the TGI in assay [7], in assay [8], in [10], in [11], in assay [13] and in assay [14] was over 100 µM throughout. Also, the TGI in [15] is over 100 µM.

On to `CCCCOc1ccc(CC(NC(=O)OC(C)(C)C)C(=O)NC(C)C(=O)NC(Cc2ccccc2)C(=O)NCC(N)=O)cc1` (stereo unspecified) (Boc-Y(nBu)AFG-NH2; configuration not given here), for which the TGI in assay [1], in assay [2], in assay [3], in assay [5], in assay [6] and in assay [7] was over 100 µM throughout. The TGI in [8], in assay [9], in assay [10], in assay [11], in [13] and in assay [14] was over 100 µM throughout. The same compound returned a TGI in [15] of over 100 µM.

For `CN(CCc1ccccn1)c1ccc2c(c1)C(=O)c1ccccc1-2`, the TGI in [1], in assay [2], in [3], in [4], in assay [5] and in assay [6] was over 100 µM in each case. The TGI in assay [7], in assay [8], in [9], in [10], in [11] and in assay [13] was over 100 µM each time. For the same compound, the TGI in assay [14] and in [15] was over 100 µM throughout.

As for `C=C1C(O)C2(O)OCC34C(CC5C(C)=CC(=O)C(O)C5(C)C23)OC(=O)C(OC(=O)C/C=C/CCCCCCCC)C14` (stereo unspecified), the TGI in assay [3] is 0.0464 µM; in [4], 0.027 µM; in assay [5] it was 0.116 µM; in [6], 0.041 µM; in assay [7], 0.0751 µM; in assay [8], 0.0815 µM. Besides, the TGI stood at 2.55 µM in assay [10], 0.0471 µM in assay [13] and 0.0292 µM in [15].

Regarding `COC(=O)c1c(O)ccc2c1c1c(n2Cc2cc(OC)cc(OC)c2)C(=O)c2ccccc2C1=O`, the TGI in assay [1] was determined as 21.4 µM; in assay [2], 29 µM; in assay [3], 3.28 µM; in [4], 51.5 µM; in assay [5] it was 15.1 µM; in [6] it was 23 µM. In addition, the TGI in assay [7] was 13.6 µM; in assay [8], 27 µM; in assay [9], 19 µM; in assay [10], 21.8 µM; in assay [11], 25 µM; in assay [12], over 100 µM. For the same compound, the TGI in assay [13] is over 100 µM; in assay [14], 50.5 µM.

Turning to `CCCCCCCCCCCCCCCc1nc(=S)[nH][nH]1`, the TGI in assay [4], in assay [5], in [6], in [7], in assay [8] and in [9] was over 100 µM in each case. Also, the TGI in [11], in assay [12] and in assay [15] was over 100 µM each time.

As to `COc1cc(C2S/C(=C/c3ccccc3)C(=O)N2c2cccc(NC(C)=O)c2)cc(OC)c1OC` (stereo unspecified), the TGI was over 100 µM in assay [2]; 86.6 µM in assay [3]; 53.2 µM in assay [4]; 37.2 µM in assay [5]; over 100 µM in assay [6]; 82 µM in assay [7]. The TGI was over 100 µM in [8]; over 100 µM in [10]; over 100 µM in assay [12]; 68.6 µM in assay [14]; over 100 µM in assay [15].

`CC1(C)OC[C@@H]([C@@]2(COC(c3ccccc3)(c3ccccc3)c3ccccc3)CC=CC(=O)O2)O1`: the TGI in assay [1] is over 100 µM; in [2] it was 74.4 µM; in assay [3], 50.6 µM; in assay [4], 83.8 µM; in [5], over 100 µM; in [6], over 100 µM. The TGI in assay [7], in [8], in [9], in assay [11], in [12] and in assay [13] was over 100 µM each time. The TGI in [14] and in assay [15] was over 100 µM throughout.

Take `O=c1c2cc(O)ccc2n2nnc3ccc(NCCNCCO)c1c32`: the TGI was > 100 µM and 24 µM in assay [1]; 50.9 µM and 21.7 µM in [3]; 97 µM and 48.1 µM in [4]; > 100 µM and 28.6 µM in assay [5]; 43.4 µM and 18 µM in assay [6]; > 85.3 µM and 25.2 µM in [7]. Further, the TGI in assay [8] is 42.3 µM and 20.2 µM; in assay [9] it was > 57.4 µM and 23.6 µM; in [11] it was > 86 µM and 16.3 µM; in assay [12] it was 14.7 µM and 4.29 µM; in assay [13] it was > 88.5 µM and 14.8 µM; in assay [15], 19.4 µM and 13.3 µM. Moreover, the GI50 in assay [6] was 10.1 µM and 3.25 µM; in [9], 28.9 µM and 4.01 µM; in assay [11], 14.8 µM and 3.75 µM; in [13], 5.16 µM and 1.55 µM; in assay [15], 6.87 µM and 3.14 µM.

As for `Cc1ccc(-c2cc(-c3ccc(Cl)cc3)nc(/N=C3\C(=O)N(CN(C)C)c4ccccc43)n2)cc1`, the TGI in assay [1], in assay [2], in assay [3], in assay [4], in [5] and in assay [6] was over 100 µM each time. Also, the TGI in assay [7], in [8], in assay [9], in assay [10], in [11] and in [13] was over 100 µM throughout. In addition, the TGI in assay [14] and in [15] was over 100 µM each time.

Take `O=C(O)c1cc2ccccc2c(N=Nc2ccc(S(=O)(=O)Nc3ncccn3)cc2)c1O`: the TGI in assay [1], in assay [2], in assay [3], in [4], in assay [5] and in assay [6] was over 100 µM each time. The TGI in [7], in assay [9], in assay [10], in assay [11], in [12] and in [13] was over 100 µM throughout. The same compound displayed a TGI in assay [15] of over 100 µM.

On to `COc1ccccc1-c1c(C#N)c(N)[nH]c(=S)c1C#N`, for which the TGI in [1], in [2], in assay [3], in [4], in [5] and in assay [6] was over 100 µM each time. Moreover, the TGI in assay [7], in assay [8], in [9], in [10], in assay [11] and in assay [12] was over 100 µM in each case. For the same compound, the TGI in [13] and in assay [15] was over 100 µM in each case.
